Test results taken from ChEMBL document CHEMBL2073749, “Rat organic anion transporter 3 (rOAT3) is responsible for brain-to-blood efflux of homovanillic acid at the abluminal membrane of brain capillary endothelial cells” (J Cereb Blood Flow Metab, 2003).

Assays:
[1] = molecular target: T1, Organic anion transporter 3 (OAT3) (Rattus norvegicus, UniProt Q9R1U7); experiment: TP_TRANSPORTER: inhibition of Homovanillic acid uptake (HVA: 0.2 uM, Indomethacin: 1000 uM) in Xenopus laevis oocytes; format: functional, cell-based, Oocyte; set-up: scale not given: the % may be the effect or the level left; details: Xenopus laevis oocytes (Organic anion transporter 3), probe Homovanillic acid (HVA), read-out: Activity
T1 sequence (Q9R1U7 whole entry): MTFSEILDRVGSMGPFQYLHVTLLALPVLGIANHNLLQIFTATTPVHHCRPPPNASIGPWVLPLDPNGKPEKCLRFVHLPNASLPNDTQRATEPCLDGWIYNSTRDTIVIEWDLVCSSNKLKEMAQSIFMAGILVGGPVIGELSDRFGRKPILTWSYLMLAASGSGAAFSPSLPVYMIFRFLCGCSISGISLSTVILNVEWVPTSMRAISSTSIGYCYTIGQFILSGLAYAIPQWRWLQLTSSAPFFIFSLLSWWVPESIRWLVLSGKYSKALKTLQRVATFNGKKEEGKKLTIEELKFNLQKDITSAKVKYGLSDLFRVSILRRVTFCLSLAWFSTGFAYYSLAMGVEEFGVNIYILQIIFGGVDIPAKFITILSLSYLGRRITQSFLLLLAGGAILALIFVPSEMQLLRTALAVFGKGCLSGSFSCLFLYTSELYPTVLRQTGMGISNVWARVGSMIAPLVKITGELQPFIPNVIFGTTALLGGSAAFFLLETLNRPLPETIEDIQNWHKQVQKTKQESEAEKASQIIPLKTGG

[2] = molecular target: T1, Organic anion transporter 3 (OAT3); experiment: TP_TRANSPORTER: inhibition of Homovanillic acid uptake (HVA: 0.2 uM, Probenecid: 1000 uM) in Xenopus laevis oocytes; format: functional, cell-based, Oocyte; set-up: scale not given: the % may be the effect or the level left; details: Xenopus laevis oocytes (Organic anion transporter 3), probe Homovanillic acid (HVA), read-out: Activity
[3] = molecular target: T1, Organic anion transporter 3 (OAT3); experiment: TP_TRANSPORTER: inhibition of Homovanillic acid uptake (HVA: 0.2 uM, PCG: 1000 uM) in Xenopus laevis oocytes; format: functional, cell-based, Oocyte; set-up: scale not given: the % may be the effect or the level left; details: Xenopus laevis oocytes (Organic anion transporter 3), probe Homovanillic acid (HVA), read-out: Activity
[4] = molecular target: T1, Organic anion transporter 3 (OAT3); experiment: in vitro; details: xenopus laevis, Xenopus laevis oocytes (Organic anion transporter 3), probe Homovanillic acid (HVA), 0.2 uM
Description: TP_TRANSPORTER: inhibition of Homovanillic acid uptake (HVA: 0.2 uM, Cimetidine: 1000 uM) in Xenopus laevis oocytes

[5] = molecular target: T1, Organic anion transporter 3 (OAT3); experiment: TP_TRANSPORTER: inhibition of Homovanillic acid uptake (HVA: 0.2 uM, 6-mercaptopurine: 1000 uM) in Xenopus laevis oocytes; format: functional, cell-based, Oocyte; set-up: scale not given: the % may be the effect or the level left; details: Xenopus laevis oocytes (Organic anion transporter 3), probe Homovanillic acid (HVA), read-out: Activity
[6] = molecular target: T1, Organic anion transporter 3 (OAT3); experiment: TP_TRANSPORTER: inhibition of Homovanillic acid uptake (HVA: 0.2 uM, Baclofen: 1000 uM) in Xenopus laevis oocytes; format: functional, cell-based, Oocyte; set-up: scale not given: the % may be the effect or the level left; details: Xenopus laevis oocytes (Organic anion transporter 3), probe Homovanillic acid (HVA), read-out: Activity
[7] = molecular target: T1, Organic anion transporter 3 (OAT3); experiment: TP_TRANSPORTER: inhibition of Homovanillic acid uptake (HVA: 0.2 uM, PAH: 1000 uM) in Xenopus laevis oocytes; format: functional, cell-based, Oocyte; set-up: scale not given: the % may be the effect or the level left; details: Xenopus laevis oocytes (Organic anion transporter 3), probe Homovanillic acid (HVA), read-out: Activity
[8] = molecular target: T1, Organic anion transporter 3 (OAT3); experiment: TP_TRANSPORTER: inhibition of Homovanillic acid uptake (HVA: 0.2 uM, E1S; 1000 uM) in Xenopus laevis oocytes; format: functional, cell-based, Oocyte; set-up: scale not given: the % may be the effect or the level left; details: Xenopus laevis oocytes (Organic anion transporter 3), probe Homovanillic acid (HVA), read-out: Activity
[9] = substrate: COc1cc(CC(=O)O)ccc1O; experiment: TP_TRANSPORTER: uptake in Xenopus laevis oocytes; format: functional, cell-based, Oocyte

`COc1ccc2c(c1)c(CC(=O)O)c(C)n2C(=O)c1ccc(Cl)cc1` [INDOMETHACIN] was tested, and the activity at 1000 µM [1] was 40.9%.

For `CCCN(CCC)S(=O)(=O)c1ccc(C(=O)O)cc1` [PROBENECID], the activity at 1000 µM [2] was 23.4%.

Molecule `CC1(C)S[C@@H]2[C@H](NC(=O)Cc3ccccc3)C(=O)N2[C@H]1C(=O)O` [PENICILLIN G] has an activity at 1000 µM [3] of 1.01%.

For `CN/C(=N/CCSCc1nc[nH]c1C)NC#N` [CIMETIDINE], the activity at 1000 µM [4] was 24.5%.

`Sc1ncnc2nc[nH]c12` [MERCAPTOPURINE ANHYDROUS] gave an activity at 1000 µM [5] of 8.67%.

`NCC(CC(=O)O)c1ccc(Cl)cc1` (centres undefined) [BACLOFEN] gave an activity at 1000 µM [6] of 23.2%.

For `Nc1ccc(C(=O)NCC(=O)O)cc1` [AMINOHIPPURIC ACID], the activity at 1000 µM [7] was 20.3%.

Work on `C[C@]12CC[C@@H]3c4ccc(OS(=O)(=O)O)cc4CC[C@H]3[C@@H]1CCC2=O` [ESTRONE SULFURIC ACID] yielded an activity at 1000 µM [8] of 4.35%.

B1: Organic anion transporter 3 (Rattus norvegicus) (protein)
chain: MTFSEILDRVGSMGPFQYLHVTLLALPVLGIANHNLLQIFTATTPVHHCRPPPNASIGPWVLPLDPNGKPEKCLRFVHLPNASLPNDTQRATEPCLDGWIYNSTRDTIVIEWDLVCSSNKLKEMAQSIFMAGILVGGPVIGELSDRFGRKPILTWSYLMLAASGSGAAFSPSLPVYMIFRFLCGCSISGISLSTVILNVEWVPTSMRAISSTSIGYCYTIGQFILSGLAYAIPQWRWLQLTSSAPFFIFSLLSWWVPESIRWLVLSGKYSKALKTLQRVATFNGKKEEGKKLTIEELKFNLQKDITSAKVKYGLSDLFRVSILRRVTFCLSLAWFSTGFAYYSLAMGVEEFGVNIYILQIIFGGVDIPAKFITILSLSYLGRRITQSFLLLLAGGAILALIFVPSEMQLLRTALAVFGKGCLSGSFSCLFLYTSELYPTVLRQTGMGISNVWARVGSMIAPLVKITGELQPFIPNVIFGTTALLGGSAAFFLLETLNRPLPETIEDIQNWHKQVQKTKQESEAEKASQIIPLKTGG
For B1, the Km [9] was 274 µM.
